Experimental data taken from ChEMBL document CHEMBL6182948 (J Med Chem, 2025).

Tests used:
Cytochrome P450 1B1 = target: T1, Cytochrome P450 1B1 (Homo sapiens, UniProt Q16678); assay: Inhibition of human recombinant CYP1B1 using 7-ethoxyresorufin as substrate incubated under dark condition for 30 mins in presence of NADPH by EROD fluorescence assay; assay type: ADME
T1 sequence (Q16678 whole entry): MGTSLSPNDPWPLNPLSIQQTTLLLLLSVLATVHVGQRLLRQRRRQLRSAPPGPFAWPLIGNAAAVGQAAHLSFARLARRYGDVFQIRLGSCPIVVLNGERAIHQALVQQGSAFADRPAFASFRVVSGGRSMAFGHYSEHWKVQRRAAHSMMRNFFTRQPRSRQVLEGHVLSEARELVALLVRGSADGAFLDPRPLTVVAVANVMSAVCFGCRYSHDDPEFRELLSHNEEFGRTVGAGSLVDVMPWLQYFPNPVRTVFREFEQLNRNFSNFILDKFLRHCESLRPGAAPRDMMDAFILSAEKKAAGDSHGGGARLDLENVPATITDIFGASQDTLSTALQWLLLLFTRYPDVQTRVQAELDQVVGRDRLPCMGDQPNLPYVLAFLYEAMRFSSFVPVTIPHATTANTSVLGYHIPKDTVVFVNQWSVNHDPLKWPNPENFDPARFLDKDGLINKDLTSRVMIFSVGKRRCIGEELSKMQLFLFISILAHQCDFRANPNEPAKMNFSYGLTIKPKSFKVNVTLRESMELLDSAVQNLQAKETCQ

Homo sapiens = species on record: Homo sapiens; assay: Selectivity index, ratio of IC50 for human recombinant CYP1A2 to IC50 for human recombinant CYP1B1 using 7-ethoxyresorufin as substrate
CYP2C8 = target: T2, CYP2C8 (Homo sapiens, UniProt P10632); assay: Inhibition of CYP2C8 in human liver microsome at 10 uM pre-incubated with compound for 5 mins followed NADPH addition and measured after 5 mins by LC-MS/MS analysis relative to control; assay type: ADME; details: liver microsomes, time 10 min
T2 sequence (P10632 whole entry): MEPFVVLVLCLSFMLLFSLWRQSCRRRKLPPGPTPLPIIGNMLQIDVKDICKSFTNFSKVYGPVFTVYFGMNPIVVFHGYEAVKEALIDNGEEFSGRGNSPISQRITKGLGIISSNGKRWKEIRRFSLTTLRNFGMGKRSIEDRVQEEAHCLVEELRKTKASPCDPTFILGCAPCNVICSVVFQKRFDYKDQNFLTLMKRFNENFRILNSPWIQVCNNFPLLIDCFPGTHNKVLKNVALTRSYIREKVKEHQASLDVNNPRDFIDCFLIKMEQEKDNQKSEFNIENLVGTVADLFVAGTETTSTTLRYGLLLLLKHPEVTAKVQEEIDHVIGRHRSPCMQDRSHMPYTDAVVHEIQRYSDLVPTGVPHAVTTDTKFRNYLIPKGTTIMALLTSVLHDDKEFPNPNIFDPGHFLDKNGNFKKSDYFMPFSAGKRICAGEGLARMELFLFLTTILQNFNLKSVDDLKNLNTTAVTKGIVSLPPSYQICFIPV

CYP2D6 = CYP2D6 (Homo sapiens, UniProt P10635); assay: Inhibition of CYP2D6 in human liver microsome at 10 uM pre-incubated with compound for 5 mins followed NADPH addition and measured after 10 mins by LC-MS/MS analysis relative to control; assay type: ADME; details: liver microsomes, time 15 min
CYP2D6, sequence (P10635 whole entry): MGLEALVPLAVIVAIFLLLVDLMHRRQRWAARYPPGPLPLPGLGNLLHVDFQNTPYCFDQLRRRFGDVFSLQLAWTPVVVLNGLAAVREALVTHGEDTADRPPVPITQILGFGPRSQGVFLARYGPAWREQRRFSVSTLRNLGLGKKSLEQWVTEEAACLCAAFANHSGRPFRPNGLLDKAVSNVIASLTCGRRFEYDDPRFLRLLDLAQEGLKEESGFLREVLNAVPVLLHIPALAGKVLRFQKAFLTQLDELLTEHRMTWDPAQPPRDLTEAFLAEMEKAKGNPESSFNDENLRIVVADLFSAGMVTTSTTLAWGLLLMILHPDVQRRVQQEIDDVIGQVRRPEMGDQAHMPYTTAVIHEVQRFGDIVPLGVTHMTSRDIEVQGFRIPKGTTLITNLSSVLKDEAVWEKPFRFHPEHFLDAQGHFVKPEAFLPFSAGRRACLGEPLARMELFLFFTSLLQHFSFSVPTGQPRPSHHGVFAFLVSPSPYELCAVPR

Cytochrome P450 2C19 = Cytochrome P450 2C19 (Homo sapiens, UniProt P33261); assay: Inhibition of CYP2C19 in human liver microsome pre-incubated with compound for 5 mins followed NADPH addition and measured after 30 mins by LC-MS/MS analysis; assay type: ADME, microsomes
Cytochrome P450 2C19, sequence (P33261 whole entry): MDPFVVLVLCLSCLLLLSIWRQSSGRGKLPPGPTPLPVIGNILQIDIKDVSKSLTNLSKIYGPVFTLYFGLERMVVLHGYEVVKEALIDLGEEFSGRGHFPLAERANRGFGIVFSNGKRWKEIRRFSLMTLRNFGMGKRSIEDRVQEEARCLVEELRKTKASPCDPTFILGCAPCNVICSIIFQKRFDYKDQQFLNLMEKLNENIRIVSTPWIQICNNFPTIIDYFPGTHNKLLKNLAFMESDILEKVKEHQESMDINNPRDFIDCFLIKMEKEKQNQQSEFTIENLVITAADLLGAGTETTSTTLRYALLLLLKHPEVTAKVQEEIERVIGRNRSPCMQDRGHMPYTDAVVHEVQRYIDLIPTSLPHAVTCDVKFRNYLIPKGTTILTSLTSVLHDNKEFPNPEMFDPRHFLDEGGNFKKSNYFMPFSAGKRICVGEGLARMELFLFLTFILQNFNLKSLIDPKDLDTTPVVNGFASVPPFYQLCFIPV

Cytochrome P450 2C8 = target: T3, Cytochrome P450 2C8 (Homo sapiens, UniProt P10632); assay: Inhibition of CYP2C8 in human liver microsome pre-incubated with compound for 5 mins followed NADPH addition and measured after 5 mins by LC-MS/MS analysis; assay type: ADME, microsomes
T3 sequence (P10632 whole entry): T2 sequence (P10632 whole entry)

Cytochrome P450 2C9 = Cytochrome P450 2C9 (Homo sapiens, UniProt P11712); assay: Inhibition of CYP2C9 in human liver microsome pre-incubated with compound for 5 mins followed NADPH addition and measured after 10 mins by LC-MS/MS analysis; assay type: ADME, microsomes
Cytochrome P450 2C9, sequence (P11712 whole entry): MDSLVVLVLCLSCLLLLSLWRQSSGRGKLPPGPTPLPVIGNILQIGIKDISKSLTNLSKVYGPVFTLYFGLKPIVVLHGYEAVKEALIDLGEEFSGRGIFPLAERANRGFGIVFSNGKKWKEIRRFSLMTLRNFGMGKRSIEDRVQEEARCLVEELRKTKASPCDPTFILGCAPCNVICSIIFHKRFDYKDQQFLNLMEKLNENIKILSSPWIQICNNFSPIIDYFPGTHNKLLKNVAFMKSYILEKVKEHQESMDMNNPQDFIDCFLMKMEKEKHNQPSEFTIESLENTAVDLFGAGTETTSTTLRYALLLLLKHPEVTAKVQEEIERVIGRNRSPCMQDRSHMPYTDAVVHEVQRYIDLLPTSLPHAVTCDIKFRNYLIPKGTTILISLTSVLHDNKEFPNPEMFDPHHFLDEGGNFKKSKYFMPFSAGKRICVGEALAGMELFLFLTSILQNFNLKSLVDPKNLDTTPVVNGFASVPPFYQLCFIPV

Cytochrome P450 2D6 = Cytochrome P450 2D6 (Homo sapiens, UniProt P10635); assay: Inhibition of CYP2D6 in human liver microsome pre-incubated with compound for 5 mins followed NADPH addition and measured after 10 mins by LC-MS/MS analysis; assay type: ADME, microsomes
Cytochrome P450 2D6, sequence (P10635 whole entry): as the sequence (P10635 whole entry) above

A549/TR [1] = assay: Reversal of drug resistance in human A549/Taxol cells assessed as increase in paclitaxel-induced cytotoxicity incubated for 48 hrs by CCK-8 assay; assay type: functional, cell-based; details: dose 2.5-10 µM
[2] = Metabolic stability in liver microsomes (unknown origin) assessed as half life at 0.5 mg/ml measured up to 60 mins by LC-MS/MS analysis; assay type: ADME, Microsome
[3] = Metabolic stability in liver microsome (unknown origin) assessed as intrinsic clearance at 0.5 mg/mL measured up to 60 mins by LC-MS/MS analysis; assay type: ADME; details: liver microsomes, read-out: CLH
[4] = Stability in human plasma assessed as compound remaining at 100 uM measured after 5 mins by LC-MS/MS analysis; assay type: ADME, cell-free; details: read-out: Stability
[5] = Stability in human plasma assessed as half life at 100 uM measured up to 120 mins by LC-MS/MS analysis; assay type: ADME, cell-free
A549/TR [6] = assay: Synergistic antiproliferative activity against human A549/Taxol cells assessed as combination index at 2.5 uM in presence of 0.025 uM paclitaxel by Chou-Talalay method; assay type: functional
A549/TR [7] = assay: Synergistic antiproliferative activity against human A549/Taxol cells assessed as combination index at 20 uM in presence of 0.025 uM paclitaxel by Chou-Talalay method; assay type: functional
A549/TR [8] = assay: Synergistic antiproliferative activity against human A549/Taxol cells assessed as combination index at 2.5 uM in presence of 0.1 uM paclitaxel by Chou-Talalay method; assay type: functional
A549/TR [9] = assay: Synergistic antiproliferative activity against human A549/Taxol cells assessed as combination index at 5 uM in presence of 0.1uM paclitaxel by Chou-Talalay method; assay type: functional
A549/TR [10] = assay: Synergistic antiproliferative activity against human A549/Taxol cells assessed as combination index at 10 uM in presence of 0.1uM paclitaxel by Chou-Talalay method; assay type: functional
A549/TR [11] = assay: Inhibition of cell invasion in human A549/Taxol cells assessed as reduction in cell migration incubated for 24 hrs by transwell invasion assay relative to control; assay type: functional, cell-based; details: dose 2.5-10 µM
[12] = Half life in male Sprague-Dawley rat at 10 mg/kg, po measured up to 24 hrs by LC-MS/MS analysis; assay type: ADME, organism-based; details: in vivo
[13] = Cmax in male Sprague-Dawley rat at 10 mg/kg, po measured up to 24 hrs by LC-MS/MS analysis; assay type: ADME, organism-based; details: in vivo
[14] = Tmax in male Sprague-Dawley rat at 2 mg/kg, iv measured up to 24 hrs by LC-MS/MS analysis; assay type: ADME, organism-based; details: in vivo
[15] = Cmax in male Sprague-Dawley rat at 2 mg/kg, iv measured up to 24 hrs by LC-MS/MS analysis; assay type: ADME, organism-based; details: in vivo
[16] = MRT (0 to t) in male Sprague-Dawley rat at 2 mg/kg, iv measured up to 24 hrs by LC-MS/MS analysis; assay type: ADME, organism-based; details: in vivo
[17] = MRT (0 to infinity) in male Sprague-Dawley rat at 2 mg/kg, iv measured up to 24 hrs by LC-MS/MS analysis; assay type: ADME, organism-based; details: in vivo

| IC50 (Cytochrome P450 1B1) [nM] | Ratio IC50 (Homo sapiens) | inhibition at 5 min, 10 µM (CYP2C8) [%] | inhibition at 10 min, 10 µM (CYP2D6) [%] | IC50 (Cytochrome P450 2C19) [µM] | IC50 (Cytochrome P450 2C8) [µM] | IC50 (Cytochrome P450 2C9) [µM] | IC50 (Cytochrome P450 2D6) [µM] | half-life [2] [h] | CLint scaled [3] [mL/min/kg] | remaining at 5 min, 100 µM [4] [%] | half-life at 100 µM [5] [h] | Structure (SMILES) | Activity (A549/TR [1]) | other results |
| --- | --- | --- | --- | --- | --- | --- | --- | --- | --- | --- | --- | --- | --- | --- |
| 0.05 | > 200000 | 33.6 | 23.1 | 6.45 | > 10 | > 10 | > 10 | 1.17 | 17.8 | 99 | > 2 | N#Cc1ccc(-c2csc(C(=O)Nc3ccc(C(F)(F)F)cc3)n2)cc1 | Dose-dependent-effect |  |
| 1.77 | > 56400 | 0 | 0 |  |  |  |  | > 1 |  | 106 | > 2 | N#Cc1ccc(-c2csc(C(=O)Nc3cc(Cl)cc(Cl)c3)n2)cc1 | Dose-dependent-effect; Compound Showed Robust Reversal Activity |  |
| 1.48 | > 54000 | 15.7 | 0 | > 10 | > 10 | > 10 | > 10 | > 1 | 1.1 | 87.1 | > 2 | O=C(Nc1cc(Cl)cc(Cl)c1)c1nc(-c2cccc(Cl)c2)cs1 | Dose-dependent-effect | CI (A549/TR [6]): 0.75; CI (A549/TR [7]): 0.63; CI (A549/TR [8]): 0.09; CI (A549/TR [9]): 0.15; CI (A549/TR [10]): 0.47; inhibition (A549/TR [11]): Dose-dependent-effect; half-life [12]: 1.12 h; Cmax [13]: 81 ng/mL; Tmax [14]: 4.8 min; Cmax [15]: 4750 ng/mL; MRT last at 24 h [16]: 0.64 h; MRT inf [17]: 0.73 h |
